Data: patent US20250145665A1, “MACROCYCLIC PEPTIDES USEFUL AS MODULATORS OF TNF ALPHA” (Bristol-Myers Squibb Company, priority 2023, published 2025)
Starred links: 1 amine or outer side, 2 acyl side, 3 side chain; linkers in the order of their positions; H or OH if unused. Positions of bridges follow the written chain, without caps; N, C: chain ends. Non-standard residues stand in square brackets, D forms with d. Residues, ends and D or L forms follow the SMILES beside them. ξ: configuration not given here. Bip(4'-COOH) = N[C@@H](Cc1ccc(-c2ccc(C(=O)O)cc2)cc1)C(=O)O; Bip(4'-NHAc) = CC(=O)Nc1ccc(-c2ccc(C[C@H](N)C(=O)O)cc2)cc1; Phe(3-CH2NH2) = O=C([C@H](Cc1cccc(CN[*:3])c1)N[*:1])[*:2]; Ala(morpholin-4-yl) = N[C@@H](CN1CCOCC1)C(=O)O; Phe(3-CONH2) = NC(=O)c1cccc(C[C@H](N)C(=O)O)c1; Bip = N[C@@H](Cc1ccc(-c2ccccc2)cc1)C(=O)O; Phe(3-OMe) = COc1cccc(C[C@H](N)C(=O)O)c1; Ala(2-furyl) = N[C@@H](Cc1ccco1)C(=O)O; Tiq1c(1S) = O=C(O)[C@H]1NCCc2ccccc21; 2Pal = N[C@@H](Cc1ccccn1)C(=O)O; 2Thi = N[C@@H](Cc1cccs1)C(=O)O; Cha = N[C@@H](CC1CCCCC1)C(=O)O; Chg = N[C@H](C(=O)O)C1CCCCC1; ξIle = CC[C@H](C)C(N)C(=O)O; Sar = CNCC(=O)O

target: TNFα (Homo sapiens, UniProt P01375); test: TNF-Induced HEK-Blue Assay; assay type: cell-based; settings: not given
Sequence (P01375 77-233 limits assumed): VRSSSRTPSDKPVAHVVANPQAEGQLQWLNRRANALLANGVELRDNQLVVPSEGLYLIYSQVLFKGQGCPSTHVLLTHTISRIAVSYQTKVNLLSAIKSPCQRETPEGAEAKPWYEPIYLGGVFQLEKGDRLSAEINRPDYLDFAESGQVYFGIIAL

Work on `CC(=O)Nc1ccc(-c2ccc(C[C@@H]3NC(=O)[C@H](Cc4ccc(-c5ccc(C(=O)O)cc5)cc4)NC(=O)[C@H](CC4CCCCC4)NC(=O)CSC[C@@H](C(=O)NCC(N)=O)NC(=O)[C@H](CC(C)C)NC(=O)[C@H](Cc4ccc(O)cc4)NC(=O)[C@H](C(C)C)NC(=O)[C@@H]4c5ccccc5CCN4C(=O)[C@H](C(C)C)NC(=O)[C@@H](CCCNC(=N)N)NC(=O)[C@H](CC(=O)O)NC(=O)[C@@H]4CCCN4C(=O)CN(C)C3=O)cc2)cc1` [Example 278] ({CH2CO}-[Cha][Bip(4'-COOH)][Bip(4'-NHAc)][Sar]PD[dR]V[Tiq1c(1S)]VYLCG-NH2; thioether N-13) yielded an IC50 of 50 to 200 nM.

same assay, conditions: HEK-Blue-CD40L cells, NF-kB-driven secreted alkaline phosphatase reporter; TNFα 0.5 ng/ml; 18 h; read-out: TNF induced HEK-Blue assay IC50 value

`CC[C@H](C)[C@@H]1NC(=O)[C@@H](CCCNC(=N)N)NC(=O)[C@H](CC(=O)O)NC(=O)[C@@H]2c3ccccc3CCN2C(=O)CN(C)C(=O)[C@H](Cc2ccc(-c3ccc(NC(C)=O)cc3)cc2)NC(=O)[C@H](Cc2ccc(-c3ccc(C(=O)O)cc3)cc2)NC(=O)[C@H](CC2CCCCC2)NC(=O)CSC[C@@H](C(=O)NCC(N)=O)NC(=O)[C@H](CC(C)C)NC(=O)[C@H](Cc2ccc(O)cc2)NC(=O)[C@H](C(C)C)NC(=O)[C@@H]2CCCN2C1=O` [Example 279] ({CH2CO}-[Cha][Bip(4'-COOH)][Bip(4'-NHAc)][Sar][Tiq1c(1S)]D[dR]IPVYLCG-NH2; thioether N-13) and `CC[C@H](C)[C@@H]1NC(=O)[C@@H]2CCCN2C(=O)[C@H]([C@@H](C)CC)NC(=O)[C@@H](CCCNC(=N)N)NC(=O)[C@H](CC(=O)O)NC(=O)[C@@H]2CCCN2C(=O)CN(C)C(=O)[C@H](Cc2ccc(-c3ccc(NC(C)=O)cc3)cc2)NC(=O)[C@H](Cc2ccc(-c3ccc(C(=O)O)cc3)cc2)NC(=O)[C@H](CC2CCCCC2)NC(=O)CSC[C@@H](C(=O)NCC(N)=O)NC(=O)[C@H](CC(C)C)NC(=O)[C@H](Cc2ccc(O)cc2)NC1=O` [Example 286] ({CH2CO}-[Cha][Bip(4'-COOH)][Bip(4'-NHAc)][Sar]PD[dR]IPIYLCG-NH2; thioether N-13) fall in the same range of IC50: 50 to 200 nM for the first, 50 to 200 nM for the second.

`CC(=O)Nc1ccc(-c2ccc(C[C@@H]3NC(=O)[C@H](Cc4ccc(-c5ccc(C(=O)O)cc5)cc4)NC(=O)[C@H](CC4CCCCC4)NC(=O)CSC[C@@H](C(=O)NCC(N)=O)NC(=O)[C@H](CC(C)C)NC(=O)[C@H](Cc4cnc[nH]4)NC(=O)[C@H](C(C)C)NC(=O)[C@@H]4CCCN4C(=O)[C@H](C4CCCCC4)NC(=O)[C@@H](CCCNC(=N)N)NC(=O)[C@H](CC(=O)O)NC(=O)[C@H](Cc4cnc[nH]4)NC(=O)CN(C)C3=O)cc2)cc1` [Example 280] ({CH2CO}-[Cha][Bip(4'-COOH)][Bip(4'-NHAc)][Sar]HD[dR][Chg]PVHLCG-NH2; thioether N-13) and `CC[C@H](C)[C@@H]1NC(=O)[C@@H](CCCNC(=N)N)NC(=O)[C@H](CC(=O)O)NC(=O)[C@H](Cc2cnc[nH]2)NC(=O)CN(C)C(=O)[C@H](Cc2ccc(-c3ccc(NC(C)=O)cc3)cc2)NC(=O)[C@H](Cc2ccc(-c3ccc(C(=O)O)cc3)cc2)NC(=O)[C@H](CC2CCCCC2)NC(=O)CSC[C@@H](C(=O)NCC(N)=O)NC(=O)[C@H](CC(C)C)NC(=O)[C@H](Cc2ccc(OC)cc2)NC(=O)[C@H](C(C)C)NC(=O)[C@@H]2CCCN2C1=O` [Example 281] ({CH2CO}-[Cha][Bip(4'-COOH)][Bip(4'-NHAc)][Sar]HD[dR]IPVY(Me)LCG-NH2; thioether N-13) fall in the same range of IC50: 50 to 200 nM for the first, 50 to 200 nM for the second.

`CC[C@H](C)[C@@H]1NC(=O)[C@@H](CCCNC(=N)N)NC(=O)[C@H](CC(=O)O)NC(=O)[C@H](Cc2cnc[nH]2)NC(=O)CN(C)C(=O)[C@H](Cc2ccc(-c3ccc(NC(C)=O)cc3)cc2)NC(=O)[C@H](Cc2ccc(-c3ccc(C(=O)O)cc3)cc2)NC(=O)[C@H](CC2CCCCC2)NC(=O)CSC[C@@H](C(=O)NCC(N)=O)NC(=O)[C@H](CC(C)C)NC(=O)[C@H](Cc2cccc(OC)c2)NC(=O)[C@H](C(C)C)NC(=O)[C@@H]2CCCN2C1=O` [Example 282] ({CH2CO}-[Cha][Bip(4'-COOH)][Bip(4'-NHAc)][Sar]HD[dR]IPV[Phe(3-OMe)]LCG-NH2; thioether N-13) and `CC[C@H](C)[C@@H]1NC(=O)[C@@H]2CCCN2C(=O)[C@H]([C@@H](C)CC)NC(=O)[C@@H](CCCNC(=N)N)NC(=O)[C@H](CC(=O)O)NC(=O)[C@H](Cc2ccccc2)NC(=O)CN(C)C(=O)[C@H](Cc2ccc(-c3ccc(NC(C)=O)cc3)cc2)NC(=O)[C@H](Cc2ccc(-c3ccc(C(=O)O)cc3)cc2)NC(=O)[C@H](CN2CCOCC2)NC(=O)CSC[C@@H](C(=O)NCC(N)=O)NC(=O)[C@H](CC(C)C)NC(=O)[C@H](Cc2cnc[nH]2)NC1=O` [Example 284] ({CH2CO}-[Ala(morpholin-4-yl)][Bip(4'-COOH)][Bip(4'-NHAc)][Sar]FD[dR]IPIHLCG-NH2; thioether N-13) fall in the same range of IC50: 50 to 200 nM for the first, 50 to 200 nM for the second.

`CC(=O)Nc1ccc(-c2ccc(C[C@@H]3NC(=O)[C@H](Cc4ccc(-c5ccccc5)cc4)NC(=O)[C@H](CC4CCCCC4)NC(=O)CSC[C@@H](C(=O)NCC(N)=O)NC(=O)[C@H](CC(C)C)NC(=O)[C@H](Cc4cccc(CN)c4)NC(=O)[C@H](C(C)C)NC(=O)[C@@H]4CCCN4C(=O)[C@H](C(C)C)NC(=O)[C@@H](CCCNC(=N)N)NC(=O)[C@H](CC(=O)O)NC(=O)[C@H](Cc4ccc(O)cc4)NC(=O)CN(C)C3=O)cc2)cc1` [Example 283] ({CH2CO}-[Cha][Bip][Bip(4'-NHAc)][Sar]YD[dR]VPV[Phe(3-CH2NH2)]LCG-NH2; thioether N-13) and `CC[C@H](C)[C@@H]1NC(=O)[C@@H]2CCCN2C(=O)[C@H]([C@@H](C)CC)NC(=O)[C@@H](CCCNC(=N)N)NC(=O)[C@H](CC(=O)O)NC(=O)[C@H](Cc2ccccn2)NC(=O)CN(C)C(=O)[C@H](Cc2ccc(-c3ccc(NC(C)=O)cc3)cc2)NC(=O)[C@H](Cc2ccc(-c3ccccc3)cc2)NC(=O)[C@H](CC2CCCCC2)NC(=O)CSC[C@@H](C(=O)NCC(N)=O)NC(=O)[C@H](CC(C)C)NC(=O)[C@H](Cc2cccc(C(N)=O)c2)NC1=O` [Example 285] ({CH2CO}-[Cha][Bip][Bip(4'-NHAc)][Sar][2Pal]D[dR]IPI[Phe(3-CONH2)]LCG-NH2; thioether N-13) cannot be ordered by IC50: under 50 nM for the first, under 50 nM for the second.

`CC(=O)Nc1ccc(-c2ccc(C[C@@H]3NC(=O)[C@H](Cc4ccc(-c5ccc(C(=O)O)cc5)cc4)NC(=O)[C@H](CN4CCOCC4)NC(=O)CSC[C@@H](C(=O)NCC(N)=O)NC(=O)[C@H](CC(C)C)NC(=O)[C@H](Cc4ccccc4)NC(=O)[C@H](C(C)C)NC(=O)[C@@H]4CCCN4C(=O)[C@H](C(C)C)NC(=O)[C@@H](CCCNC(=N)N)NC(=O)[C@H](CC(=O)O)NC(=O)[C@H](Cc4ccc(O)cc4)NC(=O)CN(C)C3=O)cc2)cc1` [Example 287] ({CH2CO}-[Ala(morpholin-4-yl)][Bip(4'-COOH)][Bip(4'-NHAc)][Sar]YD[dR]VPVFLCG-NH2; thioether N-13) and `CC[C@H](C)[C@@H]1NC(=O)[C@@H]2CCCN2C(=O)[C@H]([C@@H](C)CC)NC(=O)[C@@H](CCCNC(=N)N)NC(=O)[C@H](CC(=O)O)NC(=O)[C@H](Cc2cnc[nH]2)NC(=O)CN(C)C(=O)[C@H](Cc2ccc(-c3ccc(NC(C)=O)cc3)cc2)NC(=O)[C@H](Cc2ccc(-c3ccc(C(=O)O)cc3)cc2)NC(=O)[C@H](CN2CCOCC2)NC(=O)CSC[C@@H](C(=O)NCC(N)=O)NC(=O)[C@H](CC(C)C)NC(=O)[C@H](Cc2cnc[nH]2)NC1=O` [Example 292] ({CH2CO}-[Ala(morpholin-4-yl)][Bip(4'-COOH)][Bip(4'-NHAc)][Sar]HD[dR]IPIHLCG-NH2; thioether N-13) cannot be ordered by IC50: under 50 nM for the first, under 50 nM for the second.

First: CC(=O)Nc1ccc(-c2ccc(C[C@@H]3NC(=O)[C@H](Cc4ccc(-c5ccccc5)cc4)NC(=O)[C@H](CC4CCCCC4)NC(=O)CSC[C@@H](C(=O)NCC(N)=O)NC(=O)[C@H](CC(C)C)NC(=O)[C@H](Cc4ccco4)NC(=O)[C@H](C(C)C)NC(=O)[C@@H]4CCCN4C(=O)[C@H](C(C)C)NC(=O)[C@@H](CCCNC(=N)N)NC(=O)[C@H](CC(=O)O)NC(=O)[C@@H]4CCCN4C(=O)CN(C)C3=O)cc2)cc1 [Example 288] ({CH2CO}-[Cha][Bip][Bip(4'-NHAc)][Sar]PD[dR]VPV[Ala(2-furyl)]LCG-NH2; thioether N-13)
Second: CC(=O)Nc1ccc(-c2ccc(C[C@@H]3NC(=O)[C@H](Cc4ccc(-c5ccccc5)cc4)NC(=O)[C@H](CC4CCCCC4)NC(=O)CSC[C@@H](C(=O)NCC(N)=O)NC(=O)[C@H](CC(C)C)NC(=O)[C@H](Cc4cccs4)NC(=O)[C@H](C(C)C)NC(=O)[C@@H]4CCCN4C(=O)[C@H](C(C)C)NC(=O)[C@@H](CCCNC(=N)N)NC(=O)[C@H](CC(=O)O)NC(=O)[C@@H]4CCCN4C(=O)CN(C)C3=O)cc2)cc1 [Example 289] ({CH2CO}-[Cha][Bip][Bip(4'-NHAc)][Sar]PD[dR]VPV[2Thi]LCG-NH2; thioether N-13)
The IC50 of the first is higher: 200 to 2000 nM for the first, 50 to 200 nM for the second.

Compared with `CC[C@H](C)C1NC(=O)[C@@H]2CCCN2C(=O)[C@H]([C@@H](C)CC)NC(=O)[C@@H](CCCNC(=N)N)NC(=O)[C@H](CC(=O)O)NC(=O)[C@H](Cc2ccccn2)NC(=O)CN(C)C(=O)[C@H](Cc2ccc(-c3ccc(NC(C)=O)cc3)cc2)NC(=O)[C@H](Cc2ccc(-c3ccccc3)cc2)NC(=O)[C@H](CC2CCCCC2)NC(=O)CSC[C@@H](C(=O)NCC(N)=O)NC(=O)[C@H](CC(C)C)NC(=O)[C@H](CCCNC(=N)N)NC1=O` (stereo partly drawn) [Example 290] ({CH2CO}-[Cha][Bip][Bip(4'-NHAc)][Sar][2Pal]D[dR]IP[ξIle]RLCG-NH2; thioether N-13), `CC[C@H](C)C1NC(=O)[C@@H]2CCCN2C(=O)[C@H]([C@@H](C)CC)NC(=O)[C@@H](CCCNC(=N)N)NC(=O)[C@H](CC(=O)O)NC(=O)[C@H](Cc2ccccn2)NC(=O)CN(C)C(=O)[C@H](Cc2ccc(-c3ccc(NC(C)=O)cc3)cc2)NC(=O)[C@H](Cc2ccc(-c3ccc(C(=O)O)cc3)cc2)NC(=O)[C@H](CC2CCCCC2)NC(=O)CSC[C@@H](C(=O)NCC(N)=O)NC(=O)[C@H](CC(C)C)NC(=O)[C@H](CCCNC(=N)N)NC1=O` (stereo partly drawn) [Example 291] ({CH2CO}-[Cha][Bip(4'-COOH)][Bip(4'-NHAc)][Sar][2Pal]D[dR]IP[ξIle]RLCG-NH2; thioether N-13) is lower in IC50: 50 to 200 nM for the first, under 50 nM for the second. The second is the more potent here.
